Assay results from ChEMBL document CHEMBL3431459, “Roche carnitine palmitoyltransferase modulator screening data (supplementary data associated with the publication CHEMBL2216752)”.
pIC50: −log10 of the molar value. ≈ marks a conversion by molar mass, not a printed value.

Columns and labels:
[1] = biological target: T1, Carnitine O-palmitoyltransferase 1, muscle isoform (Homo sapiens, UniProt Q92523); experiment: SUPPLEMENTARY: Inhibition of Carnitine palmitoyltransferase 1, muscle isoform; design: species or system Muscle tissue
T1 sequence (Q92523 whole entry): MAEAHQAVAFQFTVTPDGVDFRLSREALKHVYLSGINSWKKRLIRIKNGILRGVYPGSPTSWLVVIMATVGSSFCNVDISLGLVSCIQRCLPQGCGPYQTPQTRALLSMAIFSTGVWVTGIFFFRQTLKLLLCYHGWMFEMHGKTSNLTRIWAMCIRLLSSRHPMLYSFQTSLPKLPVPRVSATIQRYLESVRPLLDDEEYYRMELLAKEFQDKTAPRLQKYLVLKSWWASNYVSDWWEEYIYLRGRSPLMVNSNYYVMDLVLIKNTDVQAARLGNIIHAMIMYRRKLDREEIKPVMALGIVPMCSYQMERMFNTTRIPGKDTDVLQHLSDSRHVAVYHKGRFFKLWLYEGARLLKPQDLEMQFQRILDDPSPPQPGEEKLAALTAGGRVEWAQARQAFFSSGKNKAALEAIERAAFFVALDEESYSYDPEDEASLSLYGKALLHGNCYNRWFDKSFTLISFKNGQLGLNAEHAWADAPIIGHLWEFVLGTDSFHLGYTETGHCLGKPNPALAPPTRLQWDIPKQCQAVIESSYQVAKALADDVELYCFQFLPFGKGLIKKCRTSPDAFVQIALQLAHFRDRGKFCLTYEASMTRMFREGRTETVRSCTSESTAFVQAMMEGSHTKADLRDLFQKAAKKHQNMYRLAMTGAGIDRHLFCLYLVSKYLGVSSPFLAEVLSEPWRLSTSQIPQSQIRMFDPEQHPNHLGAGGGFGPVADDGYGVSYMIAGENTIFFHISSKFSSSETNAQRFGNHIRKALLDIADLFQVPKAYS

[2] = biological target: T2, Carnitine O-palmitoyltransferase 2, mitochondrial (Homo sapiens, UniProt P23786); experiment: (§1) SUPPLEMENTARY: Inhibition of Carnitine palmitoyltransferase 2
T2 sequence (P23786 whole entry): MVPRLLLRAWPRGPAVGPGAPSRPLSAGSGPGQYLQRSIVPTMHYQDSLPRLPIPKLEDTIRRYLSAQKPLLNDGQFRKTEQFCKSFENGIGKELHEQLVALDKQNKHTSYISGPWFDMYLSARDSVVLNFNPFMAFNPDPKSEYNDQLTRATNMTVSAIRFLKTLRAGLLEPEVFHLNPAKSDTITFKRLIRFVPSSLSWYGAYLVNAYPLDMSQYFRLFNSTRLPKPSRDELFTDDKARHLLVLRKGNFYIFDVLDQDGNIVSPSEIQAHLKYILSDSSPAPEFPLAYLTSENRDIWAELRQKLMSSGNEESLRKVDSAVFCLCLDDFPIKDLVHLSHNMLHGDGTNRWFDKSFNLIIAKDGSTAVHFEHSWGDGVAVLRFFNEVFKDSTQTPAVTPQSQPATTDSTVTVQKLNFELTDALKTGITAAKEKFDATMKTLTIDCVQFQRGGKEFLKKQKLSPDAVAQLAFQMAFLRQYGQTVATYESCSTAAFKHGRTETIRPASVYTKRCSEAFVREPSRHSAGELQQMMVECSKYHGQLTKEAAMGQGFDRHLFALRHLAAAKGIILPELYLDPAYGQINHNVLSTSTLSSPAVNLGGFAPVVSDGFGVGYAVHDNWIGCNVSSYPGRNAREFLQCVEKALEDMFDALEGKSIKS

[3] = biological target: T3, Carnitine O-palmitoyltransferase 2, mitochondrial (Rattus norvegicus, UniProt P18886); experiment: as §1
T3 sequence (P18886 whole entry): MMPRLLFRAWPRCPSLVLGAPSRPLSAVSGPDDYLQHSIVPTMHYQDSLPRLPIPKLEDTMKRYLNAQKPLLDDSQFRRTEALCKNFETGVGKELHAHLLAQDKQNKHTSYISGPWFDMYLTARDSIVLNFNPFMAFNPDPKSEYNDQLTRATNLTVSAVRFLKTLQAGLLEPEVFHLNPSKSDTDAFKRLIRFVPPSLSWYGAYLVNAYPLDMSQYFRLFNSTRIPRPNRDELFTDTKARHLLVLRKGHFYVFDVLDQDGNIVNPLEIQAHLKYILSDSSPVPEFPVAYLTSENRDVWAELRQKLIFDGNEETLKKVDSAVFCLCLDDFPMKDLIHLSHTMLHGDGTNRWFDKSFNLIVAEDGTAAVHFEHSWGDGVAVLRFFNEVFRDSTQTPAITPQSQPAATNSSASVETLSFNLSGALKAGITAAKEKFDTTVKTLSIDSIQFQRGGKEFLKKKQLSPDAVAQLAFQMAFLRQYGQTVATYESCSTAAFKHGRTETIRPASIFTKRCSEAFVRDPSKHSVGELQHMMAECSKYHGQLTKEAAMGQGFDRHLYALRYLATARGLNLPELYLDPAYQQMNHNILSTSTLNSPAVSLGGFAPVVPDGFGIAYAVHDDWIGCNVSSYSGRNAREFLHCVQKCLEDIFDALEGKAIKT

[4] = biological target: T4, Carnitine O-palmitoyltransferase 1, liver isoform (Homo sapiens, UniProt P50416); experiment: (§2) SUPPLEMENTARY: Inhibition of Carnitine palmitoyltransferase 1, liver isoform
T4 sequence (P50416 whole entry): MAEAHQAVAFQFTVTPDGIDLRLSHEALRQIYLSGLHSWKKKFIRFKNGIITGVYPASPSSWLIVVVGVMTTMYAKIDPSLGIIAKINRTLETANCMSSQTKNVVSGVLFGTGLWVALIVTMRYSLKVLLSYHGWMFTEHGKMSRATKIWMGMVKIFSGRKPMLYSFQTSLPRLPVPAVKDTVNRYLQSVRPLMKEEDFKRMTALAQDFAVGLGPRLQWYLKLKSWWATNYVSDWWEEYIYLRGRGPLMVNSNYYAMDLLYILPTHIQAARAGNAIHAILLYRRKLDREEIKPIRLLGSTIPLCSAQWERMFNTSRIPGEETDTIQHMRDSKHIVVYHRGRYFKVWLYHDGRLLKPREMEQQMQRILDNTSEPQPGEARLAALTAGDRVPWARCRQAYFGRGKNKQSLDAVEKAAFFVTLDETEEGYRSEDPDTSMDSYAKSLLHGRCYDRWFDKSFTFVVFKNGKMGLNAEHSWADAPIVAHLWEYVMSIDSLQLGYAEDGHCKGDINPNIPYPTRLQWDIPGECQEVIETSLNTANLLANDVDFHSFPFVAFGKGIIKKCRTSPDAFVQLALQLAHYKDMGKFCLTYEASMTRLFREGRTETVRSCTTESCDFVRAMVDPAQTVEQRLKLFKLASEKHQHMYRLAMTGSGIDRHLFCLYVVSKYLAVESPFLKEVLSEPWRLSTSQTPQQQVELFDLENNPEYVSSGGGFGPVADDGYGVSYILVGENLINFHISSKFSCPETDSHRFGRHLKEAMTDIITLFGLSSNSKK

[5] = biological target: T5, Carnitine O-palmitoyltransferase 1, liver isoform (Rattus norvegicus, UniProt P32198); experiment: as §2
T5 sequence (P32198 whole entry): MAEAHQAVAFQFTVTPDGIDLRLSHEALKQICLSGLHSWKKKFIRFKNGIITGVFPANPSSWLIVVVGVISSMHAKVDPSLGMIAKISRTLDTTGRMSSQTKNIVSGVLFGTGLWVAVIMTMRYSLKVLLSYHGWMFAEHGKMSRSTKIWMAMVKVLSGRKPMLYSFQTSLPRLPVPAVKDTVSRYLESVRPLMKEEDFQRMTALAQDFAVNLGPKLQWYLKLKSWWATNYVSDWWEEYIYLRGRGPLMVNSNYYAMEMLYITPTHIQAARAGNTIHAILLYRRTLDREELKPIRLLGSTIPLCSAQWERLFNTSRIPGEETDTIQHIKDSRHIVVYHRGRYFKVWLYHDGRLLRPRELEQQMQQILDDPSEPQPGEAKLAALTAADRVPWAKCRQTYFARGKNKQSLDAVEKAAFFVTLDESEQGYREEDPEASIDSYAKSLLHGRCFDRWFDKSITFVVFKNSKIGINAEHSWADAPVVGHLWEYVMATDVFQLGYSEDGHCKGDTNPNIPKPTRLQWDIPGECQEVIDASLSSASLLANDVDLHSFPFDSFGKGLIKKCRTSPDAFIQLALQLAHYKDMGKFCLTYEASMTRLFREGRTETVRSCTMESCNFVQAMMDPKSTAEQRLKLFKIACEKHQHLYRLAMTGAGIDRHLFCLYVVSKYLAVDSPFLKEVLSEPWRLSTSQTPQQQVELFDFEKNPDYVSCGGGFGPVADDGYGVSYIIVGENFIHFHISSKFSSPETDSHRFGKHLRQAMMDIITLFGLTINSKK

[6] = SUPPLEMENTARY: Lyophilisation Solubility Assay (LYSA); type: physicochemical; settings: read-out: Kinetic_solubility
[7] = SUPPLEMENTARY: Lipophilicity (log D) Determination by high-throughput shake-flask; type: physicochemical; settings: octanol/water
[8] = SUPPLEMENTARY: PAMPA permeability assay; type: physicochemical; settings: read-out: Permeability

pIC50 [1]	pIC50 [2]	pIC50 [3]	pIC50 [4]	pIC50 [5]	solubility kinetic [6]	logD [7]	Papp [8]	Structure (SMILES)
6.22	< 4.00	< 4.00	7.39	7.59	0.26 mg/mL (≈ 544 µM)	0.34	29.1 nm/s	O=C(O)Cc1csc(NC(=O)c2ccc3c(c2)N(S(=O)(=O)c2cccc(Cl)c2)CC3)n1
5.84	< 4.00	< 4.00	7.38	7.41	0.031 mg/mL (≈ 59.2 µM)	0.05	21.8 nm/s	COc1ccc(Cl)cc1S(=O)(=O)N1CCOc2ccc(C(=O)Nc3ncc(CC(=O)O)s3)cc21
5.76	5.35	4.43	6.99	7.21	0.013 mg/mL (≈ 22.8 µM)	-0.27	2.1 nm/s	COc1ccc(Cl)cc1S(=O)(=O)N1CCS(=O)(=O)c2ccc(C(=O)Nc3ccc(C(=O)O)c(F)c3)cc21
6.40	5.70	5.04	7.08	7.15	0.007 mg/mL (≈ 13 µM)	2.6	25.7 nm/s	COc1ccc(Cl)cc1S(=O)(=O)N1CCSc2ccc(C(=O)Nc3ccc(C(=O)O)c(F)c3)cc21

Second part, the molecule before the results:

Structure (SMILES)	pIC50 [1]	pIC50 [2]	pIC50 [3]	pIC50 [4]	pIC50 [5]	solubility kinetic [6]	logD [7]	Papp [8]
O=C(COc1ccccc1)N1CCCC[C@@H]1c1noc(-c2cc([N+](=O)[O-])[nH]n2)n1	< 4.00	< 4.00	< 4.00	6.85	6.41	0.068 mg/mL (≈ 171 µM)	1.07	69.9 nm/s
O=C1Nc2ccc(-c3noc([C@H]4CCCCN4C(=O)COc4ccccc4)n3)cc2CO1	< 4.00	5.32	< 4.00	7.01	6.81	0.008 mg/mL (≈ 18.4 µM)	2.89	35.9 nm/s
Cc1cc(C)cc(S(=O)(=O)N2CCc3ccc(C(=O)Nc4nc(CC(=O)O)cs4)cc32)c1	6.28	< 4.00	< 4.00	7.78	7.49	0.005 mg/mL (≈ 10.6 µM)	2.37	22.2 nm/s
O=C(O)c1ccc(NC(=O)c2ccc3c(c2)N(Cc2cccc(Cl)c2)C(=O)CS3(=O)=O)cc1	5.29	4.16	< 4.00	6.64	6.73	0.026 mg/mL (≈ 53.6 µM)	0.47	10.5 nm/s
O=C1NCc2ccc(-c3n[nH]c([C@H]4CCCCN4C(=O)COc4ccccc4)n3)cc2N1	< 4.00	4.40	4.36	6.72	6.26	0.077 mg/mL (≈ 178 µM)	2.18	21.8 nm/s
O=C(COc1ccccc1)N1CCCC[C@@H]1c1nc(-c2cccc(N3CCCS3(=O)=O)c2)no1	< 4.00	< 4.00	< 4.00	7.22	7.22	< 0.001 mg/mL	2.82	245 nm/s
O=C1CCCN1c1cccc(-c2noc([C@H]3CCCCN3C(=O)COc3ccccc3)n2)c1	< 4.00	< 4.00	< 4.00	7.05	7.21	< 0.001 mg/mL	3.09	38.6 nm/s
O=C1CN(c2cccc(-c3noc([C@H]4CCCCN4C(=O)COc4ccccc4)n3)c2)C(=O)N1	< 4.00	4.30	< 4.00	7.30	6.99	0.014 mg/mL (≈ 30.3 µM)	2.62	38.2 nm/s
O=C(COc1ccccc1)N1CCCC[C@@H]1c1nc(-c2cccc(-n3cn[nH]c3=O)c2)no1	< 4.00	4.29	< 4.00	7.02	6.34	0.04 mg/mL (≈ 89.6 µM)	2.42	48.7 nm/s
O=C(COc1ccccc1)N1CCC(n2c(COc3ccccc3)nc3cc(F)ccc32)CC1	< 4.00	< 4.00	< 4.00	4.35	< 5.00	< 0.001 mg/mL	3.95	22.7 nm/s
